# Measured values from patent publication US4482548A, “Analgesic pharmaceutical compositions containing 5-phenyl-1,4-benzo diazepine compounds and a method of using same” (Kali-Chemie Pharma GmbH, priority 1982, dated 1984).
# Assays:
# arthritis pain in rats = experiment: Arthritis pain test on rats (suppression of the arthritis pain in rats); format: in vivo, male rats of the OFA strain; details: Rattus norvegicus, po, 3 h after administration; dosage protecting 50% of the treated animals against pain
# Protocol: (§1) Such tests, for instance, compare the pain allaying effect of the test compound in the arthritis pain test with the sedative and muscle relaxing effects which impair the normal activity of rats.
# 1. Arthritis pain test on rats.
# Male rats of the OFA strain, weighing between 160 g. and 180 g. are anesthetized by intraperitoneal administration of 20 mg./kg. of Pentobarbital Sodium. 0.1 ml. of a suspension of 0.6 mg. of Mycobacterium Smegmae (SI043) in paraffin oil are injected intracutaneously into the left hind paw of the rats. Fourteen days thereafter, when a pronounced secondary arthritis has developed especially in the right hind paw of the rats, the effects of the test compounds are investigated. For this purpose a control measurement is carried out thirty minutes before administration of the compound to be tested by deflecting three times the ankle joints of the right hind paws of the test animals and counting the number of distress sounds emitted by them. […] The ankle joint deflecting procedure is repeated three hours after oral administration of the compounds to be tested. Animals which emit distress sounds either only once or not at all are considered as being protected against pain. The dosage by which protection against pain is achieved in 50% of the treated animals is designated as the effective dosage ED50.
# [1] = Inhibition of the locomotion exploratory activity according to Janssen (suppression of the locomotor exploration activity on rats); set-up: species or system male rats of the Sprague-Dawley type; details: rat, in vivo, po, 1 h before test; dosage corresponding to 9 points for six pairs of rats
# Excerpt: as §1
# 2. Determination of the inhibition of the locomotion exploratory activity according to the method described by Janssen in "Psychopharmakologie", vol. 1 (1961), pages 141-146.
# The compound to be tested is orally administered in the form of a suspension in 2% Tylose solution to male rats of the Sprague-Dawley type one hour before starting the test. Six pairs of rats are used for each dosage to be administered. Each pair of rats is then placed into an environment which is entirely unknown to them. The locomotor activity of said rats with respect to the exploration and inquisitiveness phase within the first thirty seconds is observed and recorded by two observers. The observed activity is evaluated according to a point system. According to said system the highest possible number of points for six pairs of rats amounts to 18 points. That dosage which corresponds to 9 points for six pairs of rats is designated as ED50.
# Acute toxicity on mice = details: mouse, in vivo, po, read-out: Acute toxicity on mice ED50
compound,measurement,setting,value
"CN1C(=O)CN=C(c2ccccc2)c2cc(Cl)ccc21 [Diazepam, 7-chloro-1-methyl-5-phenyl-1,3-dihydro-2H-1,4-benzo diazepin-2-one, reference compound]",ED50,arthritis pain in rats,6.2 mg/kg
same,ED50 at 1 h,[1],11.5 mg/kg
"COCC1CN=C(c2ccccc2Cl)c2cc(Br)ccc2N1C (centres unmarked) [compound 1, 1-methyl-7-bromo-2-methoxy methyl-5-(2-chlorophenyl)-1H-2,3-dihydro-1,4-benzo diazepine]",ED50,arthritis pain in rats,4.8 mg/kg
same,LD50,Acute toxicity on mice,2390 mg/kg
same,ED50 at 1 h,[1],56.2 mg/kg
"COCC1CN=C(c2ccccc2Cl)c2cc(Cl)ccc2N1C (centres unmarked) [compound 2, 1-methyl-7-chloro-2-methoxy methyl-5-(2-chlorophenyl)-1H-2,3-dihydro-1,4-benzo diazepine]",ED50,arthritis pain in rats,10 mg/kg
same,LD50,Acute toxicity on mice,1470 mg/kg
same,ED50 at 1 h,[1],55.5 mg/kg
